Measurements from US9051310B2, “Nicotinamide derivative or salt thereof” (FUJIFILM Corporation, priority 2011, dated 2015).

Each compound was assayed against T1, glutathione S-transferase (GST)-linked full-length human Syk protein (Homo sapiens, UniProt P43405) (assay: Syk enzyme assay). Conditions: 0.83 nM Syk, time-resolved fluorescence; read-out: IC50 of Syk-inhibitory activity.
T1 construct: glutathione S-transferase (GST)-linked full-length human Syk protein; purchased Carna Biosciences; host or cells: Baculovirus expression system
Format: biochemical
Experimental: A glutathione S-transferase (GST)-linked full-length human Syk protein (Carna Biosciences), which had been generated using a Baculovirus expression system, was used in the Syk enzyme assay.
7.5 μl of a reaction solution (0.83 nM Syk, 20 mM HEPES, 10 mM MgCl2, 50 mM NaCl, 2 mM DTT, 0.05% BSA, pH 7.0) containing a Syk protein and a predetermined concentration of a test compound was shaken for 2 minutes, and it was then left at rest at room temperature for 13 minutes. Thereafter, 0.5 μM substrate peptide (Biotin-[…]-NH2) and 5 μL of a solution containing 67.5 μM ATP were added to the reaction solution, and the obtained mixture was then shaken for 2 minutes. The reaction solution was further left at rest at room temperature for 40 minutes, so as to carry out an enzyme reaction.
Thereafter, 50 μL of a reaction termination solution [60 nM APC-SA, 0.45 μg/mL Eu-PT66, 30 mM HEPES (pH 7.0), 150 mM KF, 30 mM EDTA, 0.15% BSA, 0.075% Tween20] containing Allophycocyanin-Streptavidin (APC-SA; PerkinElmer) and an Eu-W1024-labeled anti-phosphotyrosine PT66 antibody (Eu-PT66; PerkinElmer) was added to the reaction solution to terminate the enzyme reaction. At the same time, the reaction solution was left at rest at room temperature for 1 hour, so as to carry out an antigen-antibody reaction. Thereafter, using EnVision (PerkinElmer), the level of time-resolved fluorescence was measured at 615 nm and 665 nm, so that the phosphorylation of the substrate peptide was measured.
The following are used in Table 5 to denote standards for evaluating IC50 of Syk-inhibitory activity. • A: Up to 10 nM • B: 10 to 50 nM • C: 50 to 100 nM

IC50 [nM] | Structure (SMILES)
10 to 50 | COc1ncc(Nc2nc(N[C@H](C3CCC3)[C@H](C)N)c(F)cc2C(N)=O)cc1F [Example 2-63, 6-(((1R,2S)-2-amino-1-cyclobutylpropyl)amino)-5-fluoro-2-((5-fluoro-6-methoxypyridin-3-yl)amino)nicotinamide.]
10 to 50 | CCCC[C@@H](Nc1nc(Nc2ccc3c(c2)c(N(C)C)nn3C)c(C(N)=O)cc1F)[C@H](C)N [Example 2-90, 6-(((2S,3R)-2-aminoheptan-3-yl)amino)-2-((3-(dimethylamino)-1-methyl-1H-indazol-5-yl)amino)-5-fluoronicotinamide]
< 10 | COCCN(C)c1nn(C)c2ccc(Nc3nc(N[C@@H]4CCOC[C@@H]4N)c(F)cc3C(N)=O)cc12 [Example 2-457, 6-(((3R,4R)-3-aminotetrahydro-2H-pyran-4-yl)amino)-5-fluoro-2-((3-((2-methoxyethyl)(methyl)amino)-1-methyl-1H-indazol-5-yl)amino)nicotinamide]
10 to 50 | CCOc1ncc(Nc2nc(N[C@H](CC)[C@H](C)N)c(F)cc2C(N)=O)cc1-n1ccnn1 [Example 2-206, 6-(((2S,3R)-2-aminopentan-3-yl)amino)-2-((6-ethoxy-5-(1H-1,2,3-triazol-1-yl)pyridin-3-yl)amino)-5-fluoronicotinamide]
< 10 | CC[C@@H](Nc1nc(Nc2cc(F)cc3c2cnn3CC)c(C(N)=O)cc1F)[C@H](C)N [Example 2-371, 6-(((2S,3R)-2-aminopentan-3-yl)amino)-2-((1-ethyl-6-fluoro-1H-indazol-4-yl)amino)-5-fluoronicotinamide]
< 10 | NC(=O)c1cc(F)c(N[C@@H]2CCCC[C@@H]2N)nc1Nc1cccc(OC(F)(F)F)c1 [Example 2-444, 6-(((1R,2S)-2-aminocyclohexyl)amino)-5-fluoro-2-((3-(trifluoromethoxy)phenyl)amino)nicotinamide]
10 to 50 | CC[C@H](N)[C@@H](C)Nc1nc(Nc2ccc3[nH]nc(NC)c3c2)c(C(N)=O)cc1F [Example 2-491, 6-(((2R,3S)-3-aminopentan-2-yl)amino)-5-fluoro-2-((3-(methylamino)-1H-indazol-5-yl)amino)nicotinamide]
< 10 | CNc1n[nH]c2ccc(Nc3nc(N[C@@H]4CCCC[C@@H]4N)c(F)cc3C(N)=O)cc12 [Example 2-488, 6-(((1R,2S)-2-aminocyclohexyl)amino)-5-fluoro-2-((3-(methylamino)-1H-indazol-5-yl)amino)nicotinamide]
< 10 | C[C@H](N)[C@H](Nc1nc(Nc2cnc(N3CCOCC3)c(F)c2)c(C(N)=O)cc1F)c1cccc(F)c1 [Example 2-451, 6-(((1R,2S)-2-amino-1-(3-fluorophenyl)propyl)amino)-5-fluoro-2-((5-fluoro-6-morpholinopyridin-3-yl)amino)nicotinamide]
50 to 100 | COc1cc(Nc2nc(N[C@H](C(C)C)[C@H](C)N)c(F)cc2C(N)=O)cc(OC)n1 [Example 2-108, 6-(((2S,3R)-2-amino-4-methylpentan-3-yl)amino)-2-((2,6-dimethoxypyridin-4-yl)amino)-5-fluoronicotinamide]
10 to 50 | Cc1nn(CC(F)F)c2ccc(Nc3nc(N[C@H](C)[C@@H](N)C4CC4)c(F)cc3C(N)=O)cc12 [Example 2-300, 6-(((1S,2R)-1-amino-1-cyclopropylpropan-2-yl)amino)-2-((1-(2,2-difluoroethyl)-3-methyl-1H-indazol-5-yl)amino)-5-fluoronicotinamide]
10 to 50 | COCCn1nc(N(C)C)c2cc(Nc3nc(N[C@@H]4CCOC[C@@H]4N)c(F)cc3C(N)=O)ccc21 [Example 2-501, 6-(((3R,4R)-3-aminotetrahydro-2H-pyran-4-yl)amino)-2-((3-(dimethylamino)-1-(2-methoxyethyl)-1H-indazol-5-yl)amino)-5-fluoronicotinamide]
50 to 100 | CCOC[C@@H](Nc1nc(Nc2cccc3c2cnn3CCOC)c(C(N)=O)cc1F)[C@H](C)N [Example 2-310, 6-(((2S,3S)-3-amino-1-ethoxybutan-2-yl)amino)-5-fluoro-2-((1-(2-methoxyethyl)-1H-indazol-4-yl)amino)nicotinamide]
10 to 50 | CCOc1ncc(Nc2nc(N[C@H](C3CCC3)[C@H](C)N)c(F)cc2C(N)=O)cc1-n1cccn1 [Example 2-168, 6-(((1R,2S)-2-amino-1-cyclobutylpropyl)amino)-2-((6-ethoxy-5-(1H-pyrazol-1-yl)pyridin-3-yl)amino)-5-fluoronicotinamide]
10 to 50 | Cc1ncc(Nc2nc(N[C@@H](CN)Cn3cccn3)c(F)cc2C(N)=O)cc1F [Example 2-469, (S)-6-((1-amino-3-(1H-pyrazol-1-yl)propan-2-yl)amino)-5-fluoro-2-((5-fluoro-6-methylpyridin-3-yl)amino)nicotinamide]
< 10 | CC(C)C[C@@H](Nc1nc(Nc2cc(F)c3c(c2)c(N(C)C)nn3C)c(C(N)=O)cc1F)[C@H](C)N [Example 2-190, 6-(((2S,3R)-2-amino-5-methylhexan-3-yl)amino)-2-((3-(dimethylamino)-7-fluoro-1-methyl-1H-indazol-5-yl)amino)-5-fluoronicotinamide]
< 10 | CCn1ncc2c(Nc3nc(N[C@H](c4ccc(F)c(F)c4)[C@H](C)N)c(F)cc3C(N)=O)cccc21 [Example 2-555, 6-(((1R,2S)-2-amino-1-(3,4-difluorophenyl)propyl)amino)-2-((1-ethyl-1H-indazol-4-yl)amino)-5-fluoronicotinamide]
< 10 | COCCn1nc(OC(F)F)c2cc(Nc3nc(N[C@H](C4CCC4)[C@H](C)N)c(F)cc3C(N)=O)ccc21 [Example 2-543, 6-(((1R,2S)-2-amino-1-cyclobutylpropyl)amino)-2-((3-(difluoromethoxy)-1-(2-methoxyethyl)-1H-indazol-5-yl)amino)-5-fluoronicotinamide]
10 to 50 | CC[C@H](N)[C@@H](CC)Nc1nc(Nc2ccc3c(c2)c(N(C)C)nn3C)c(C(N)=O)cc1F [Example 2-92, 6-(((3R,4S)-4-aminohexan-3-yl)amino) 2-((3-(dimethylamino)-1-methyl-1H-indazol-5-yl)amino)-5-fluoronicotinamide]
< 10 | C[C@H](N)[C@H](Nc1nc(Nc2ccc3c(c2)c(OC(F)F)nn3C)c(C(N)=O)cc1F)C1CC1 [Example 2-171, 6-(((1R,2S)-2-amino-1-cyclopropylpropyl)amino)-2-((3-(difluoromethoxy)-1-methyl-1H-indazol-5-yl)amino)-5-fluoronicotinamide]
50 to 100 | C[C@H](N)[C@H](Nc1nc(Nc2cnc(N3CCOCC3)nc2)c(C(N)=O)cc1F)C1CC1 [Example 2-563, 6-(((1R,2S)-2-amino-1-cyclopropylpropyl)amino)-5-fluoro-2-((2-morpholinopyrimidin-5-yl)amino)nicotinamide]
10 to 50 | CCC[C@@H](Nc1nc(Nc2cnc(OC)c(F)c2)c(C(N)=O)cc1F)[C@H](C)N [Example 2-65, 6-(((2S,3R)-2-aminohexan-3-yl)amino)-5-fluoro-2-((5-fluoro-6-methoxypyridin-3-yl)amino)nicotinamide]
< 10 | COCCn1nc(OC(F)F)c2cc(Nc3nc(N[C@H](CC(C)C)[C@H](C)N)c(F)cc3C(N)=O)ccc21 [Example 2-177, 6-(((2S,3R)-2-amino-5-methylhexan-3-yl)amino)-2-((3-(difluoromethoxy)-1-(2-methoxyethyl)-1H-indazol-5-yl)amino)-5-fluoronicotinamide]
10 to 50 | CCn1ncc2c(Nc3nc(N[C@H](c4cc(F)cc(F)c4)[C@H](C)N)c(F)cc3C(N)=O)cccc21 [Example 2-551, 6-(((1R,2S)-2-amino-1-[3,5-difluorophenyl)propyl)amino)-2-((1-ethyl-1H-indazol-4-yl)amino)-5-fluoronicotinamide]
< 10 | COCCn1ncc2cc(Nc3nc(N[C@H](c4cc(F)cc(F)c4)[C@H](C)N)c(F)cc3C(N)=O)ccc21 [Example 2-550, 6-(((1R,2S)-2-amino-1-(3,5-difluorophenyl)propyl)amino)-5-fluoro-2-((1-(2-methoxyethyl)-1H-indazol-5-yl)amino)nicotinamide]
10 to 50 | C[C@H](N)[C@H](Nc1nc(Nc2ccc3c(c2)c(N(C)C)nn3C)c(C(N)=O)cc1F)c1cc(F)cc(F)c1 [Example 2-549, 6-(((1R,2S)-2-amino-1-(3,5-difluorophenyl)propyl)amino)-2-((3-(dimethylamino)-1-methyl-1H-indazol-5-yl)amino)-5-fluoronicotinamide]
< 10 | COc1nn(C)c2c(F)cc(Nc3nc(N[C@H](C4CC4)[C@H](C)N)c(F)cc3C(N)=O)cc12 [Example 2-154, 6-(((1R,2S)-2-amino-1-cyclopropylpropyl)amino)-5-fluoro-2-((7-fluoro-3-methoxy-1-methyl-1H-indazol-5-yl)amino)nicotinamide]
